# Legend:
# [1] = biological target: T1, monomeric Aβ (Homo sapiens, UniProt P05067); experiment: ITC titration with monomeric Aβ sample; format: binding
# T1 construct: In this work, a depsipeptide derivative of Aβ(1–42) was utilized; made in house; host or cells: chemical peptide synthesis (no expression host)
# [2] = biological target: T2, Aβ oligomers (Homo sapiens, UniProt P05067); experiment: Precipitation study at 1 µM Aβ oligomer, supernatant Aβ by ELISA; conditions: 1 µM Aβ oligomer, 0.2, 0.5 and 1.0 equivalents of ligand, 15000× g, 3 h
# T2 construct: a depsipeptide derivative of Aβ(1–42) was utilized; made in house; host or cells: chemical peptide synthesis (no expression host)
# Procedure: The extent of precipitation was also tested at an Aβ oligomer concentration of 1 µM. The Aβ oligomer sample was mixed with 0, 0.2, 0.5 and 1.0 equivalents of 7, centrifuged at 15000× g for 3 h and the supernatant was tested for residual Aβ concentration by using a standard ELISA (Figure 11).
# Aβ concentrations determined by ELISA in supernatants obtained from samples containing 1 µM Aβ oligomer mixed with 0, 0.2, 0.5 and 1.0 equivalents of 7 and centrifuged at 15000×g (room temperature, 3 h).
# 1 μM solution of the Aβ oligomer sample was prepared. This solution was divided to 4×15 ml fractions and 7 was added to three samples in 1, 0.5 or 0.2 μM final concentration, respectively. All the four samples were divided into […] (2×5 ml). One fraction from each sample was centrifuged at 15000×g at RT for 3 hours in a Roth MIKRO 200 Microcentrifuge (Carl-Roth GmbH Karlsruhe, Germany) centrifuge. […]
# Different amounts of Aβ (0.0001, 0.0003, 0.001, 0.003, 0.01, 0.03, 0.1, 0.3 µg pro well) were coated in the wells (6 parallels for each concentration) of a 96 well plate. […] Without using a stopping reagent, the absorbance at 370 nm was constantly monitored using a FLUOstar OPTIMA Multidetection Microplate Reader (BMG LABTECH, Offenburg, Germany). Data values were read at the saturation point of the signal curves. The supernatants were analysed according to the concentration calibration.
# T2 sequence (P05067 672-713 limits assumed): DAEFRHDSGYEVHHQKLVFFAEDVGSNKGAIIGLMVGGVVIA
# T1 sequence (P05067 672-713 limits assumed): as above
structure (smiles),measurement,setting,value
N=C(N)NCCC[C@@H](CC(=O)N[C@H]1CCCC[C@@H]1C(=O)N[C@H]1CCCC[C@@H]1C(=O)N[C@@H](CC(=O)O)CC(=O)N[C@H]1CCCC[C@@H]1C(=O)NCC(=O)NCC(=O)N[C@@H](CSC1CC(=O)N(CCC(=O)NCCNC(=O)CCN(CCC(=O)NCCNC(=O)CCN2C(=O)CC(SC[C@H](NC(=O)CNC(=O)CNC(=O)[C@H]3CCCC[C@@H]3NC(=O)C[C@H](CC(=O)O)NC(=O)[C@H]3CCCC[C@@H]3NC(=O)[C@H]3CCCC[C@@H]3NC(=O)C[C@H](CCCNC(=N)N)NC(=O)[C@H]3CCCC[C@@H]3N)C(N)=O)C2=O)CCN(CCC(=O)NCCNC(=O)CCN2C(=O)CC(SC[C@H](NC(=O)CNC(=O)CNC(=O)[C@H]3CCCC[C@@H]3NC(=O)C[C@H](CC(=O)O)NC(=O)[C@H]3CCCC[C@@H]3NC(=O)[C@H]3CCCC[C@@H]3NC(=O)C[C@H](CCCNC(=N)N)NC(=O)[C@H]3CCCC[C@@H]3N)C(N)=O)C2=O)CCC(=O)NCCNC(=O)CCN2C(=O)CC(SC[C@H](NC(=O)CNC(=O)CNC(=O)[C@H]3CCCC[C@@H]3NC(=O)C[C@H](CC(=O)O)NC(=O)[C@H]3CCCC[C@@H]3NC(=O)[C@H]3CCCC[C@@H]3NC(=O)C[C@H](CCCNC(=N)N)NC(=O)[C@H]3CCCC[C@@H]3N)C(N)=O)C2=O)C1=O)C(N)=O)NC(=O)[C@H]1CCCC[C@@H]1N (some centres unmarked) [Compound 7],Binding in ITC titration with monomeric Aβ sample,[1],did not exhibit submicromolar binding
same,Loss of soluble Aβ after centrifugation (supernatant ELISA),[2],no significant loss of soluble material
